# Reference: patent US20090053302A1, “CANCER TREATMENTS” (priority 2006, published 2009)
# Columns and labels:
# [1] = not given; remark: listed apart in the source
# [2] = Phase I-II study of Lipoplatin combined with gemcitabine: toxicity, DLT, MTD; type: in vivo, human; conditions: combined with Lipoplatin 100 mg/m2, every two weeks
# Experimental: Patients and Methods: The gemcitabine dose was kept standard at 1000 mg/m2 and the lipoplatin dose was escalated from 25 mg/m2 to 125 mg/m2. The treatment was administered to advanced pretreated pancreatic cancer patients who were refractory to previous chemotherapy which included gemcitabine.
# Gemcitabine was given as a 60 min i.v. infusion in 500 ml normal saline on days 1 and 15 at a dose of 1000 mg/m2 and cycles were repeated every 4 weeks (28 days). The infusions on days 1 and 15 were considered to be 1 cycle. […] Prophylactic administration of recombinant human granulocyte colony-stimulating factor (rhG-CSF) was not allowed. In cases of grade 3 neutropenia, these patients would receive subsequent infusions of pegfilgrastim 6 mg, on the 6th or 7th day and treatment would be postponed for one week. Treatment was administered for at least three cycles or until disease progression. The study was a phase I/II cohort, dose escalation trial of Lipoplatin® and gemcitabine. Its aims were to determine the dose limiting toxicity (DLT) of the combination and to define the maximum tolerated dose (MTD) as a recommended dose for phase II and to collect preliminary data on the efficacy of the drug in pretreated patients with pancreatic cancer. […]
# [3] = Toxicity of i.v. doses in mice
# [4] = test system: human breast cancers in mice; assay: Human breast cancer xenografts in mice, intravenous injections; conditions: 6 intravenous injections with 4 days intervals; Lipoxal 16 mg/Kg, oxaliplatin at its MTD
# [5] = Total platinum in rat plasma after i.p. injection (pharmacokinetics, atomic absorption); conditions: female, Wistar, in vivo, ip, 15 mg/kg
# Experimental: For pharmacokinetic studies 20 Wistar female rats, 2-3 months of age were used of an average body weight of 150 g. […] Two animals per time point were used. […] Blood was collected in heparinized Eppendorf tubes and was centrifuged. Total platinum levels in plasma was determined using furnace Atomic Absorption (AA700 Perkin Elmer).
# At various time points postinjection blood was drawn, plasma was isolated and total platinum levels were measured for pharmacokinetic studies.
# This was calculated by linear regression analysis of the logarithmic plasma concentration-time curve by the formula Kel=[Ln(Cp1)−Ln(Cp2)]/(t2−t1) where t1 and t2 are the starting and ending time points of measurements and Cp1 and Cp2 the starting and ending concentrations of total platinum in plasma for t1 and t2, respectively.
# This was calculated by the formula: t½=0.693 (1/Kel). 1/Kel is the mean residence time (MRT), the statistical moment analogy to half-life t½ (Gibaldi et al, 1982).
# [6] = rats i.p., 15 mg/Kg (estimation) (Lipoplatin 30, cisplatin 5 mg/Kg)
# [7] = rats i.p., Lipoplatin 30, cisplatin 5 mg/Kg
# [8] = female, Wistar, rat, in vivo, ip, 15 mg/kg
smiles,measurement,setting,value
"N.N.[Cl][Pt][Cl] [cisplatin, cis-PtCl2(NH3)2]",maximum tolerated dose,rats i.p.,5 mg/kg
same,total platinum in liver from 24 to 150 h,[1]; rats i.p. 5 mg/Kg,1
same,time at which the liver level is attained,"[1]; rats i.p., 15 mg/Kg (cisplatin 5 mg/Kg)",20 min
same,"total platinum, Heart, 5 h",[1]; [6],0.2 mg Pt/g tissue
same,"total platinum, Kidney, 5 h",[1]; [6],6.8 mg Pt/g tissue
same,"total platinum, Liver, 5 h",[1]; [6],2.4 mg Pt/g tissue
same,"total platinum, Lung, 5 h",[1]; [6],0.7 mg Pt/g tissue
same,"total platinum, Spleen, 5 h",[1]; [6],1.2 mg Pt/g tissue
same,"total platinum, Brain, 5-7 days",[1]; [7],0 mg Pt/g tissue
same,"total platinum, Brain, 5 h",[1]; [7],0.1 mg Pt/g tissue
same,"total platinum, Brain, maximum (7-20 min)",[1]; [7],0.3 mg Pt/g tissue
Nc1ccn([C@@H]2O[C@H](CO)[C@@H](O)C2(F)F)c(=O)n1 [gemcitabine],MTD of gemcitabine in the combination,[2],1000 mg/m2
"O=C1[O][Pt]2([NH]C3CCCCC3[NH2+]2)[O]C1=O [oxaliplatin, cis-[(1R,2 R)-1,2-cyclohexanediamine-N,N][oxalato(2-)-O,O] platinum]",outcome of mice injected with 5 mg/Kg,[3]; 5 mg/Kg,died of toxicity
same,MTD,"[3]; mouse, in vivo",4 mg/kg
same,final body weight at 7 days (150 g before study),15 mg/Kg i.p.,109 g
same,weight loss of total body weight during 7 days,15 mg/kg i.p.,over 40 gr
same,Weight of total animal organ: Heart,"15 mg/kg i.p., 7.8 or 7 days",0.523 g
same,Weight of total animal organ: Kidney,"15 mg/kg i.p., 7.8 or 7 days",0.475 g
same,Weight of total animal organ: Lung,"15 mg/kg i.p., 7.8 or 7 days",0.934 g
same,Weight of total animal organ: Spleen,"15 mg/kg i.p., 7.8 or 7 days",0.188 g
same,weight loss,"30 mg/Kg i.p., 7 days post-treatment",33%
same,average weight after 7 days (from 150 g),"30 mg/Kg i.p., day 7",100 g
same,hepatic toxicity / nephrotoxicity,rats i.p.,absence of nephrotoxicity
same,effect on human breast cancers in mice,[4],"only cause shrinkage, not disappearance"
same,time post-injection at which total platinum in plasma reaches zero,[5],~100 h
same,"Kel, kidney",[1]; [8],0.002 h⁻¹
same,time at which the early spleen maximum is reached,[1]; [8],15 to 20 min
same,"Cl, kidney","[1]; rat, in vivo, ip, 15 mg/kg",0.01 h⁻¹
